Among the test systems are Escherichia coli; Bacillus cereus; Staphylococcus aureus; Pseudomonas aeruginosa; Bacillus subtilis 168; Escherichia coli B.
Common to all, as to assay: ≥ marks a high value that may be exact or a test limit, other limits are often not marked, values filed in µg/mL are converted to µM
For assay [1], the system named is Escherichia coli ATCC 25922.
Assay [2] has as its system Bacillus subtilis ATCC 23857.
Assay [3] deals with Enterococcus faecalis ATCC 29212.
The subject of assay [4] is Klebsiella pneumoniae ATCC 700603.
Assay [5] relates to Staphylococcus epidermidis ATCC 12228.
Assay [6] deals with Acinetobacter baumannii ATCC 19606.
The test system of assay [7] is Staphylococcus aureus ATCC 25923.
Assay [8] relates to Pseudomonas aeruginosa ATCC 27853.
Assay [9] deals with Pseudomonas aeruginosa ATCC 9027.

Usually MIC stands for the lowest concentration found to suppress growth.

Converted amounts (≈) assume the structure as drawn.

For `CC(C)C[C@H](NC(=O)[C@@H](N)Cc1ccccc1)C(=O)NCC(=O)NCC(=O)N[C@H](C(=O)N[C@@H](Cc1ccccc1)C(=O)N[C@@H](CCCCN)C(=O)NCC(=O)N[C@@H](C)C(=O)N[C@@H](CO)C(=O)N[C@@H](CCCCN)C(=O)N[C@H](C(=O)N[C@@H](Cc1ccccc1)C(=O)N1CCC[C@H]1C(=O)N[C@@H](C)C(=O)N[C@H](C(=O)N[C@@H](Cc1ccccc1)C(=O)NCC(=O)N[C@@H](CCCCN)C(=O)N[C@H](C(=O)O)C(C)C)C(C)C)C(C)C)C(C)C` [FLGGVFKGASKVFPAVFGKV], the minimum inhibitory concentration (MIC) with Escherichia coli was > 125 µM; in the assay with Bacillus cereus, ≥ 125 µM; against Staphylococcus aureus it was > 125 µM.
With `CC(C)C[C@H](NC(=O)[C@@H](N)Cc1ccccc1)C(=O)NCC(=O)N[C@@H](CCCCN)C(=O)N[C@H](C(=O)N[C@@H](Cc1ccccc1)C(=O)N[C@@H](CCCCN)C(=O)NCC(=O)N[C@@H](C)C(=O)N[C@H](C(=O)N[C@@H](CCCCN)C(=O)N[C@H](C(=O)N[C@@H](Cc1ccccc1)C(=O)N1CCC[C@H]1C(=O)N[C@@H](C)C(=O)N[C@H](C(=O)N[C@@H](Cc1ccccc1)C(=O)NCC(=O)N[C@@H](CCCCN)C(=O)N[C@H](C(=O)O)C(C)C)C(C)C)C(C)C)C(C)C)C(C)C` [FLGKVFKGAVKVFPAVFGKV], the minimal inhibitory concentration (MIC) in the assay on Escherichia coli is 59.9 µM (≈ 128 µg/mL); in the assay on Bacillus cereus it was ≥ 59.9 µM; in the assay with Staphylococcus aureus, > 59.9 µM.
For `CC(C)C[C@H](NC(=O)[C@H](CCCCN)NC(=O)[C@H](Cc1ccccc1)NC(=O)[C@@H](NC(=O)[C@H](CCCCN)NC(=O)CNC(=O)[C@H](CC(C)C)NC(=O)[C@@H](N)Cc1ccccc1)C(C)C)C(=O)N[C@@H](C)C(=O)N[C@@H](CO)C(=O)N[C@@H](CCCCN)C(=O)N[C@H](C(=O)N[C@@H](Cc1ccccc1)C(=O)N1CCC[C@H]1C(=O)N[C@@H](C)C(=O)N[C@H](C(=O)N[C@@H](Cc1ccccc1)C(=O)N[C@@H](CCCCN)C(=O)N[C@@H](CCCCN)C(=O)N[C@H](C(=O)O)C(C)C)C(C)C)C(C)C` [FLGKVFKLASKVFPAVFKKV] the same measures were 7.1 µM (≈ 16 µg/mL), ≥ 56.8 µM and 56.8 µM (≈ 128 µg/mL).
The corresponding values for `CC(C)C[C@H](NC(=O)[C@@H](N)Cc1ccccc1)C(=O)NCC(=O)N[C@H](C(=O)N[C@H](C(=O)N[C@@H](Cc1ccccc1)C(=O)N[C@@H](CCCCN)C(=O)N[C@@H](CCCCN)C(=O)N[C@@H](C)C(=O)N[C@@H](CO)C(=O)N[C@@H](CCCCN)C(=O)N[C@H](C(=O)N[C@@H](Cc1ccccc1)C(=O)N1CCC[C@H]1C(=O)N[C@@H](C)C(=O)N[C@H](C(=O)N[C@@H](Cc1ccccc1)C(=O)NCC(=O)N[C@@H](CCCCN)C(=O)N[C@H](C(=O)O)C(C)C)C(C)C)C(C)C)C(C)C)C(C)C` [FLGVVFKKASKVFPAVFGKV] are 118 µM (≈ 256 µg/mL), ≥ 118 µM and > 118 µM.
The corresponding values for `CC(C)C[C@H](NC(=O)[C@H](CCCCN)NC(=O)[C@H](Cc1ccccc1)NC(=O)[C@@H](NC(=O)[C@@H](NC(=O)CNC(=O)[C@H](CC(C)C)NC(=O)[C@@H](N)Cc1ccccc1)C(C)C)C(C)C)C(=O)N[C@@H](C)C(=O)N[C@@H](CO)C(=O)N[C@@H](CCCCN)C(=O)N[C@H](C(=O)N[C@H](C(=O)N1CCC[C@H]1C(=O)N[C@@H](C)C(=O)N[C@H](C(=O)N[C@@H](Cc1ccccc1)C(=O)NCC(=O)N[C@@H](CCCCN)C(=O)N[C@H](C(=O)O)C(C)C)C(C)C)C(C)C)C(C)C` [FLGVVFKLASKVVPAVFGKV] are 122 µM (≈ 256 µg/mL), 30.4 µM (≈ 64 µg/mL) and 7.6 µM (≈ 16 µg/mL).
For `CC[C@H](C)[C@H](NC(=O)CN)C(=O)N[C@@H](CCCCN)C(=O)N[C@@H](CCCN=C(N)N)C(=O)NCC(=O)N[C@H](C(=O)N[C@H](C(=O)N[C@@H](CCCCN)C(=O)N[C@H](C(=O)N[C@H](C(=O)N[C@@H](CCCCN)C(=O)N[C@@H](CCCN=C(N)N)C(N)=O)[C@@H](C)CC)[C@@H](C)CC)[C@@H](C)CC)[C@@H](C)CC` [GIKRGIIKIIKR], the values for the MIC in [1] and in assay [2] were > 128 µM and ≥ 32 µM, respectively.
Consider `CC[C@H](C)[C@H](NC(=O)[C@H](Cc1cnc[nH]1)NC(=O)[C@H](CCCCN)NC(=O)[C@H](CC(C)C)NC(=O)[C@H](CC(C)C)NC(=O)[C@H](CO)NC(=O)[C@H](CCSC)NC(=O)[C@H](C)NC(=O)[C@H](CCCCN)NC(=O)CN)C(=O)N[C@@H](CC(C)C)C(=O)N[C@@H](CCCCN)C(N)=O` [GKAMSLLKHILK], for which the MIC in the assay on Pseudomonas aeruginosa is > 100 µM; with Staphylococcus aureus it was > 100 µM; with Bacillus subtilis 168 it was 9.3 µM (≈ 12.4 µg/mL); against Escherichia coli B, ≥ 40 µM.
Take `CC[C@H](C)[C@H](NC(=O)[C@H](Cc1cnc[nH]1)NC(=O)[C@H](CCCCN)NC(=O)[C@H](CC(C)C)NC(=O)[C@H](C)NC(=O)[C@H](CO)NC(=O)[C@H](CCSC)NC(=O)[C@H](Cc1c[nH]c2ccccc12)NC(=O)[C@H](CCCCN)NC(=O)CN)C(=O)N[C@@H](CC(C)C)C(=O)N[C@@H](CCCCN)C(N)=O` [GKWMSALKHILK]: the minimum inhibitory concentration (MIC) against Pseudomonas aeruginosa is 100 µM (≈ 141 µg/mL); against Staphylococcus aureus, 130 µM (≈ 183 µg/mL); in the assay with Bacillus subtilis 168 it was 2.7 µM (≈ 3.81 µg/mL); against Escherichia coli B, 20 µM (≈ 28.2 µg/mL).
Consider `CC(C)C[C@H](NC(=O)[C@H](CC(C)C)NC(=O)[C@@H](NC(=O)[C@H](CCCCN)NC(=O)[C@H](C)NC(=O)[C@H](CCCN=C(N)N)NC(=O)[C@H](CCCCN)NC(=O)[C@H](C)NC(=O)[C@H](CC(C)C)NC(=O)CN)[C@@H](C)O)C(N)=O` [GLAKRAKTLL], for which the minimal inhibitory concentration (MIC) is > 512 µM in [1]; ≥ 512 µM in assay [2]; > 512 µM in [3]; > 512 µM in assay [4]; > 512 µM in [5]; > 512 µM in assay [6]. Moreover, the minimal inhibitory concentration (MIC) in assay [7] and in [8] was > 512 µM each time.
Turning to `CC[C@H](C)[C@H](NC(=O)[C@H](CCCCN)NC(=O)[C@H](CCCCN)NC(=O)[C@H](C)NC(=O)[C@@H](NC(=O)[C@H](C)NC(=O)[C@H](CC(C)C)NC(=O)[C@H](C)NC(=O)[C@H](C)NC(=O)[C@H](CCCCN)NC(=O)[C@H](CC(C)C)NC(=O)[C@H](CC(N)=O)NC(=O)[C@@H](N)CC(C)C)C(C)C)C(=O)N[C@@H](CC(C)C)C(N)=O` [LNLKAALAVAKKIL], the MIC in [9] was determined as 32 µM (≈ 46.9 µg/mL); in assay [1], 8 µM (≈ 11.7 µg/mL); in [2] it was 8 µM (≈ 11.7 µg/mL); in [4], 16 µM (≈ 23.4 µg/mL); in assay [7] it was 32 µM (≈ 46.9 µg/mL).
In the case of `CC[C@H](C)[C@H](NC(=O)CNC(=O)[C@@H](N)CCSC)C(=O)N[C@H](C(=O)N[C@@H](C)C(=O)NCC(=O)N[C@H](C(=O)N[C@H](C(=O)N[C@@H](CCCCN)C(=O)N[C@@H](Cc1ccccc1)C(=O)N[C@H](C(=O)N[C@@H](CCCCN)C(=O)NCC(=O)N[C@@H](CC(C)C)C(=O)N[C@H](C(=O)N[C@@H](CCC(=O)O)C(=O)N[C@@H](CCCCN)C(=O)N[C@@H](Cc1ccccc1)C(=O)N[C@H](C(=O)NCC(=O)N[C@@H](CCCCN)C(=O)O)[C@@H](C)O)[C@@H](C)CC)[C@@H](C)CC)[C@@H](C)CC)[C@@H](C)CC)[C@@H](C)CC` [MGIIAGIIKFIKGLIEKFTGK], the MIC in [1] was > 128 µM; in assay [2] it was ≥ 128 µM.
For the compound `CC(C)C[C@H](NC(=O)[C@H](CO)NC(=O)[C@@H]1CCCN1)C(=O)N[C@@H](CC(C)C)C(=O)N[C@@H](Cc1ccc(O)cc1)C(=O)N[C@@H](CCCCN)C(=O)N[C@@H](C)C(=O)N[C@@H](CCCCN)C(=O)N[C@@H](C)C(=O)N[C@H](C(=O)N[C@@H](Cc1ccccc1)C(=O)N[C@@H](CS)C(=O)N[C@@H](CCCCN)C(=O)N1CCC[C@H]1C(=O)N[C@@H](CO)C(=O)N[C@@H](C)C(=O)N[C@H](C(=O)N[C@@H](C)C(=O)N[C@H](C(=O)N[C@@H](Cc1ccccc1)C(=O)O)C(C)C)C(C)C)C(C)C` [PSLLYKAKAVFCKPSAVAVF], the results for the minimum inhibitory concentration (MIC) in the assay with Escherichia coli and in the assay with Bacillus cereus were > 59.8 µM and ≥ 59.8 µM, respectively.
The corresponding values for `CC(C)C[C@H](NC(=O)[C@H](CCC(=O)O)NC(=O)[C@H](Cc1ccccc1)NC(=O)[C@H](CCC(=O)O)NC(=O)[C@H](C)NC(=O)[C@H](CCC(=O)O)NC(=O)[C@H](Cc1ccccc1)NC(=O)[C@H](CC(=O)O)NC(=O)[C@@H](NC(=O)[C@H](CC(=O)O)NC(=O)[C@H](CO)NC(=O)[C@H](CCCCN)NC(=O)[C@H](CCCN=C(N)N)NC(=O)[C@H](CCCCN)NC(=O)[C@@H](N)CCCN=C(N)N)C(C)C)C(=O)N[C@@H](Cc1ccccc1)C(=O)N[C@@H](CCC(=O)O)C(=O)N[C@@H](CC(=O)O)C(=O)N[C@@H](CC(=O)O)C(=O)N[C@@H](CC(=O)O)C(=O)O` [RKRKSDVDFEAEFELFEDDD] are > 103 µM and ≥ 103 µM.
Take `CC[C@H](C)[C@H](NC(=O)[C@H](C)NC(=O)[C@H](CS)NC(=O)[C@H](Cc1ccc(O)cc1)NC(=O)[C@@H](NC(=O)[C@H](CO)NC(=O)[C@@H]1CCCN1C(=O)[C@@H](NC(=O)[C@@H](NC(=O)[C@H](CCCCN)NC(=O)[C@H](CO)NC(=O)[C@H](C)NC(=O)[C@@H](NC(=O)[C@H](CCCCN)NC(=O)CNC(=O)[C@@H](NC(=O)[C@@H](NC(=O)[C@@H](N)CO)C(C)C)[C@@H](C)CC)[C@@H](C)CC)C(C)C)C(C)C)C(C)C)C(=O)N[C@@H](CO)C(=O)N[C@@H](CCCCN)C(=O)O` [SVIGKIASKVVPSVYCAISK]: the MIC in the assay with Escherichia coli was > 125 µM; in the assay on Bacillus cereus, ≥ 125 µM.

(Values after DBAASP.)
